The test system of the assay is HCV Huh-luc/neo-ET replicon cells. The assay can be described thus: Luciferase-Based HCV Replicon Assay (EC50 (1b)). Type of assay: cell-based. To be noted: Hepatitis C virus, 72 hours exposure, luciferase activity. An outline of the steps: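 Replicon cells seeded, then exposed 24 h later to a compound concentration series in triplicate for 72 h. Luciferase luminescence read; % inhibition vs no-compound control, with 100 nM BILN-2061 as background, used to derive EC50 (1b).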
(In antiviral work, replicon cells carry a viral genome segment that copies itself.)

As usually defined, the EC50 is the concentration that produces a half-maximal response. Read a high EC50 as lower potency in that assay. `COc1ccc(CN2C(=O)C(C3=NS(=O)(=O)c4c(CNS(C)(=O)=O)csc4N3)=C(O)C3C4C=CC(C4)C32)c(OC)c1` (racemic) [Example 76, (rac-di-exo)-N-{3-[3-(2,4-Dimethoxy-benzyl)-6-hydroxy-4-oxo-3-aza-tricyclo[6.2.1.0^2,7]undeca-5,9-dien-5-yl]-1,1-dioxo-1,4-dihydro-1λ^6-thieno[2,3-e][1,2,4]thiadiazin-7-ylmethyl}-methanesulfonamide] returned an EC50 greater than 1000 nM. `CS(=O)(=O)NCc1csc2c1S(=O)(=O)N=C(C1=C(O)[C@@H]3[C@@H]4CC[C@@H](C4)[C@@H]3N(CC3CCCCC3)C1=O)N2` [Example 102, N-[3-((1S,2S,7R,8R)-3-Cyclohexylmethyl-6-hydroxy-4-oxo-3-aza-tricyclo[6.2.1.0^2,7]undec-5-en-5-yl)-1,1-dioxo-1,4-dihydro-1λ^6-thieno[2,3-e][1,2,4]thiadiazin-7-ylmethyl]-methanesulfonamide]: the EC50 fell in the range of 20 to 100 nM. Regarding `CS(=O)(=O)NCc1csc2c1S(=O)(=O)N=C(C1=C(O)[C@@H]3C4CCC(CC4)[C@@H]3N(Cc3ccc(F)cc3Cl)C1=O)N2` [Example 96, N-{3-[(2S,7R)-3-(2-Chloro-4-fluoro-benzyl)-6-hydroxy-4-oxo-3-aza-tricyclo[6.2.2.0^2,7]dodec-5-en-5-yl]-1,1-dioxo-1,4-dihydro-1λ^6-thieno[2,3-e][1,2,4]thiadiazin-7-ylmethyl}-methanesulfonamide], the EC50 lay in the range of 20 to 100 nM.

Turning to `Cc1cc(CN2C(=O)C(C3=NS(=O)(=O)c4c(CNS(C)(=O)=O)csc4N3)=C(O)[C@@H]3CCC[C@@H]32)ccc1F` [Example 126, (4aR,7aS)-N-{3-[1-(4-Fluoro-3-methyl-benzyl)-4-hydroxy-2-oxo-2,4a,5,6,7,7a-hexahydro-1H-[1]pyrindin-3-yl]-1,1-dioxo-1,4-dihydro-1λ^6-thieno[2,3-e][1,2,4]thiadiazin-7-ylmethyl}-methanesulfonamide], the concentration for a half-maximal effect (EC50) was in the range of 20 to 100 nM. In the case of `CS(=O)(=O)NCc1csc2c1S(=O)(=O)N=C(C1=C(O)C3CCCCCC3N(CC3CCCCC3)C1=O)N2` (racemic) [Example 105, (rac-cis)-N-[3-(1-Cyclohexylmethyl-4-hydroxy-2-oxo-2,4a,5,6,7,8,9,9a-octahydro-1H-cyclohepta[b]pyridin-3-yl)-1,1-dioxo-1,4-dihydro-1λ^6-thieno[2,3-e][1,2,4]thiadiazin-7-ylmethyl]-methanesulfonamide], the EC50 fell in the range of 100 to 1000 nM. `COc1ccc(CN2C(=O)C(C3=NS(=O)(=O)c4c(CNS(C)(=O)=O)csc4N3)=C(O)[C@@H]3[C@@H]4CC[C@@H](C4)[C@@H]32)c(OC)c1` [Example 73, N-{3-[(1S,2S,7R,8R)-3-(2,4-Dimethoxy-benzyl)-6-hydroxy-4-oxo-3-aza-tricyclo[6.2.1.0^2,7]undec-5-en-5-yl]-1,1-dioxo-1,4-dihydro-1λ^6-thieno[2,3-e][1,2,4]thiadiazin-7-ylmethyl}-methanesulfonamide]: the EC50 was greater than 1000 nM.

In the case of `CC(C)CCC1(C)CN(C2CC2)C(=O)C(C2=NS(=O)(=O)c3c(CNS(C)(=O)=O)csc3N2)=C1O` (racemic) [Example 19, rac-N-{3-[1-Cyclopropyl-4-hydroxy-5-methyl-5-(3-methyl-butyl)-2-oxo-1,2,5,6-tetrahydro-pyridin-3-yl]-1,1-dioxo-1,4-dihydro-1λ^6-thieno[2,3-e][1,2,4]thiadiazin-7-ylmethyl}-methanesulfonamide], the EC50 was 100 to 1000 nM. For `CC(C)(C)CCN1C(=O)C(C2=NS(=O)(=O)c3c(CNS(C)(=O)=O)csc3N2)=C(O)[C@@H]2[C@@H]3CC[C@@H](C3)[C@@H]21` [Example 59, N-{3-[(1S,2S,7R,8R)-3-(3,3-Dimethyl-butyl)-6-hydroxy-4-oxo-3-aza-tricyclo[6.2.1.0^2,7]undec-5-en-5-yl]-1,1-dioxo-1,4-dihydro-1λ^6-thieno[2,3-e][1,2,4]thiadiazin-7-ylmethyl}-methanesulfonamide] the value was 20 to 100 nM; for `CC(C)CC1CN(Cc2ccc(F)cc2)C(=O)C(C2=NS(=O)(=O)c3c(CNS(C)(=O)=O)csc3N2)=C1O` (racemic) [Example 17, rac-N-{3-[1-(4-Fluoro-benzyl)-4-hydroxy-5-isobutyl-2-oxo-1,2,5,6-tetrahydro-pyridin-3-yl]-1,1-dioxo-1,4-dihydro-1λ^6-thieno[2,3-e][1,2,4]thiadiazin-7-ylmethyl}-methanesulfonamide], 100 to 1000 nM; for `CS(=O)(=O)NCc1csc2c1S(=O)(=O)N=C(C1=C(O)[C@@H]3C4CCC(CC4)[C@@H]3N(Cc3ccc(F)cc3F)C1=O)N2` [Example 51, N-{3-[(2S,7R)-3-(2,4-Difluoro-benzyl)-6-hydroxy-4-oxo-3-aza-tricyclo[6.2.2.0^2,7]dodec-5-en-5-yl]-1,1-dioxo-1,4-dihydro-1λ^6-thieno[2,3-e][1,2,4]thiadiazin-7-ylmethyl}-methanesulfonamide], 20 to 100 nM. Regarding `CS(=O)(=O)NCc1csc2c1S(=O)(=O)N=C(C1=C(O)[C@@H]3[C@@H]4CC[C@@H](C4)[C@@H]3N(C3CCCCC3)C1=O)N2` [Example 98, N-[3-((1S,2S,7R,8R)-3-Cyclohexyl-6-hydroxy-4-oxo-3-aza-tricyclo[6.2.1.0^2,7]undec-5-en-5-yl)-1,1-dioxo-1,4-dihydro-1λ^6-thieno[2,3-e][1,2,4]thiadiazin-7-ylmethyl]-methanesulfonamide], the EC50 fell in the range of 100 to 1000 nM.

`CS(=O)(=O)NCc1csc2c1S(=O)(=O)N=C(C1=C(O)[C@@H]3CCC[C@@H]3N(Cc3ccc(F)cc3F)C1=O)N2` [Example 112, (4aR,7aS)-N-{3-[1-(2,4-Difluoro-benzyl)-4-hydroxy-2-oxo-2,4a,5,6,7,7a-hexahydro-1H-[1]pyrindin-3-yl]-1,1-dioxo-1,4-dihydro-1λ^6-thieno[2,3-e][1,2,4]thiadiazin-7-ylmethyl}-methanesulfonamide] had an EC50 of 20 to 100 nM. For `CS(=O)(=O)NCc1csc2c1S(=O)(=O)N=C(C1=C(O)C3CCCCCC3N(Cc3ccsc3)C1=O)N2` (racemic) [Example 141, (rac-cis)-N-[3-(4-Hydroxy-2-oxo-1-thiophen-3-ylmethyl-2,4a,5,6,7,8,9,9a-octahydro-1H-cyclohepta[b]pyridin-3-yl)-1,1-dioxo-1,4-dihydro-1λ^6-thieno[2,3-e][1,2,4]thiadiazin-7-ylmethyl]-methanesulfonamide] the value was greater than 1000 nM; for `CS(=O)(=O)NCc1csc2c1S(=O)(=O)N=C(C1=C(O)[C@@H]3[C@@H]4CC[C@@H](C4)[C@@H]3N(CCC3CC3)C1=O)N2` [Example 107, N-{3-[(1S,2S,7R,8R)-3-(2-Cyclopropyl-ethyl)-6-hydroxy-4-oxo-3-aza-tricyclo[6.2.1.0^2,7]undec-5-en-5-yl]-1,1-dioxo-1,4-dihydro-1λ^6-thieno[2,3-e][1,2,4]thiadiazin-7-ylmethyl}-methanesulfonamide], 20 to 100 nM; for `CS(=O)(=O)NCc1csc2c1S(=O)(=O)N=C(C1=C(O)C3C4CCC(O4)C3NC1=O)N2` (racemic) [Example 83, (rac-di-exo)-N-[3-(6-Hydroxy-4-oxo-11-oxa-3-aza-tricyclo[6.2.1.0^2,7]undec-5-en-5-yl)-1,1-dioxo-1,4-dihydro-1λ^6-thieno[2,3-e][1,2,4]thiadiazin-7-ylmethyl]-methanesulfonamide], greater than 1000 nM. As to `CS(=O)(=O)NCc1csc2c1S(=O)(=O)N=C(C1=C(O)C3CCCCCC3N(Cc3ccc(F)cc3Cl)C1=O)N2` (racemic) [Example 121, (rac-cis)-N-{3-[1-(2-Chloro-4-fluoro-benzyl)-4-hydroxy-2-oxo-2,4a,5,6,7,8,9,9a-octahydro-1H-cyclohepta[b]pyridin-3-yl]-1,1-dioxo-1,4-dihydro-1λ^6-thieno[2,3-e][1,2,4]thiadiazin-7-ylmethyl}-methanesulfonamide], the EC50 is greater than 1000 nM. `CS(=O)(=O)NCc1csc2c1S(=O)(=O)N=C(C1=C(O)[C@@H]3[C@H]4CC[C@H](C4)[C@@H]3N(C3CCCCC3)C1=O)N2` [Example 97, N-[3-((1R,2S,7R,8S)-3-Cyclohexyl-6-hydroxy-4-oxo-3-aza-tricyclo[6.2.1.0^2,7]undec-5-en-5-yl)-1,1-dioxo-1,4-dihydro-1λ^6-thieno[2,3-e][1,2,4]thiadiazin-7-ylmethyl]-methanesulfonamide] had an EC50 of 100 to 1000 nM.

The compound `CS(=O)(=O)NCc1csc2c1S(=O)(=O)N=C(C1=C(O)C3CCCC3N(Cc3ccc(F)cc3)C1=O)N2` (racemic) [Example 2, (rac-cis)-N-{3-[1-(4-Fluoro-benzyl)-4-hydroxy-2-oxo-2,4a,5,6,7,7a-hexahydro-1H-[1]pyrindin-3-yl]-1,1-dioxo-1,4-dihydro-1λ^6-thieno[2,3-e][1,2,4]thiadiazin-7-ylmethyl}-methanesulfonamide] had a concentration for a half-maximal effect (EC50) of 5 to 20 nM. For the compound `CS(=O)(=O)NCc1csc2c1S(=O)(=O)N=C(C1=C(O)[C@@H]3[C@@H]4CC[C@@H](C4)[C@@H]3N(Cc3ccc(F)cc3Cl)C1=O)N2` [Example 42, N-{3-[(1S,2S,7R,8R)-3-(2-Chloro-4-fluoro-benzyl)-6-hydroxy-4-oxo-3-aza-tricyclo[6.2.1.0^2,7]undec-5-en-5-yl]-1,1-dioxo-1,4-dihydro-1λ^6-thieno[2,3-e][1,2,4]thiadiazin-7-ylmethyl}-methanesulfonamide], the EC50 lay in the range of 100 to 1000 nM. The compound `COc1ccc(CN2C(=O)C(C3=NS(=O)(=O)c4c(CNS(C)(=O)=O)csc4N3)=C(O)C3CCCCC32)c(OC)c1` (racemic) [Example 78, (rac-cis)-N-{3-[1-(2,4-Dimethoxy-benzyl)-4-hydroxy-2-oxo-1,2,4a,5,6,7,8,8a-octahydro-quinolin-3-yl]-1,1-dioxo-1,4-dihydro-1λ^6-thieno[2,3-e][1,2,4]thiadiazin-7-ylmethyl}-methanesulfonamide] returned an EC50 greater than 1000 nM. The figure for `CS(=O)(=O)NCc1csc2c1S(=O)(=O)N=C(C1=C(O)[C@@H]3CCC[C@@H]3N(Cc3ccc(F)c(F)c3)C1=O)N2` [Example 125, (4aR,7aS)-N-{3-[1-(3,4-Difluoro-benzyl)-4-hydroxy-2-oxo-2,4a,5,6,7,7a-hexahydro-1H-[1]pyrindin-3-yl]-1,1-dioxo-1,4-dihydro-1λ^6-thieno[2,3-e][1,2,4]thiadiazin-7-ylmethyl}-methanesulfonamide] is 20 to 100 nM.
